Measured values taken from patent US10633419B2, “Immunomodulators” (BRISTOL-MYERS SQUIBB COMPANY, priority 2014, dated 2020).
Positions of bridges follow the written chain, without caps; N, C: chain ends. Non-standard residues stand in square brackets, D forms with d. Residues, ends and D or L forms follow the SMILES beside them. *: point of attachment. Dap(Nα-HOOC(CH2)16CO)OH = O=C(O)CCCCCCCCCCCCCCCCC(=O)N[C@@H](CN*)C(=O)O; CH3O(CH2CH2O)11CH2CH2CO = COCCOCCOCCOCCOCCOCCOCCOCCOCCOCCOCCOCCC(=O)*; Trp(1-CH2COOH) = N[C@@H](Cc1cn(CC(=O)O)c2ccccc12)C(=O)O; Phe(3,4,5-F3) = N[C@@H](Cc1cc(F)c(F)c(F)c1)C(=O)O; d(cisHyp) = O=C(O)[C@H]1C[C@@H](O)CN1; PEG6 = NCCOCCOCCOCCOCCOCCOCCC(=O)O; Hyp = O=C(O)[C@@H]1C[C@@H](O)CN1; NMeF = CN[C@@H](Cc1ccccc1)C(=O)O; NHtetradecyl = CCCCCCCCCCCCCCN*; NMeE = CN[C@@H](CCC(=O)O)C(=O)O; NMeNle = CCCC[C@H](NC)C(=O)O; Tle = CC(C)(C)[C@H](N)C(=O)O; dPip = O=C(O)[C@H]1CCCCN1; NMeA = CN[C@@H](C)C(=O)O; Pra = C#CC[C@H](N)C(=O)O; Aun = NCCCCCCCCCCC(=O)O; Dab = NCC[C@H](N)C(=O)O; Dap = NC[C@H](N)C(=O)O; Sar = CNCC(=O)O

What follows are compounds tested against T1, PD-L1 (Homo sapiens, UniProt Q9NZQ7) (assay: PD-1/PD-L1 Homogenous Time-Resolved Fluorescence (HTRF) binding assay (PD-1-Ig/PD-L1-His)). Conditions: not given.
T1 construct: hPDL1(19-239)-TVMV-His; made in house; host or cells: HEK293T
T1 sequence (Q9NZQ7 with tags, fused parts or gaps): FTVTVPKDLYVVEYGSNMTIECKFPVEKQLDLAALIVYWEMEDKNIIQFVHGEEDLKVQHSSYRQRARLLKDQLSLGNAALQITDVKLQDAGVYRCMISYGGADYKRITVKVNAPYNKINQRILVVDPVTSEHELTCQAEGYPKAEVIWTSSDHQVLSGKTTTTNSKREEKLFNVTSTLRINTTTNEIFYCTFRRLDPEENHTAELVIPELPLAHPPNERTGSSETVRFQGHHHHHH
Description: The ability of the macrocyclic peptides of the present disclosure to bind to PD-L1 was investigated using a PD-1/PD-L1 Homogenous Time-Resolved Fluorescence (HTRF) binding assay.
Homogenous Time-Resolved Fluorescence (HTRF) Assays of Binding of Soluble PD-1 to Soluble PD-L1. Soluble PD-1 and soluble PD-L1 refers to proteins with carboxyl-end truncations that remove the transmembrane-spanning regions and are fused to heterologous sequences, specifically the Fc portion of the human immunoglobuling G sequence (Ig) or the hexahistidine epitope tag (His). All binding studies were performed in an HTRF assay buffer consisting of dPBS supplemented with 0.1% (w/v) bovine serum albumin and 0.05% (v/v) Tween-20. For the PD-1-Ig/PD-L1-His binding assay, inhibitors were pre-incubated with PD-L1-His (10 nM final) for 15 m in 4 μl of assay buffer, followed by addition of PD-1-Ig (20 nM final) in 1 μl of assay buffer and further incubation for 15m. PD-L1 fusion proteins from either human, cynomologous macaques, mouse, or other species were used. HTRF detection was achieved using europium crypate-labeled anti-Ig monoclonal antibody (1 nM final) and allophycocyanin (APC) labeled anti-His monoclonal antibody (20 nM final). Antibodies were diluted in HTRF detection buffer and 5 μl was dispensed on top of binding reaction. The reaction was allowed to equilibrate for 30 minutes and signal (665 nm/620 nm ratio) was obtained using an EnVision fluorometer. Additional binding assays were established between PD-1-Ig/PD-L2-His (20 and 5 nM, respectively), CD80-His/PD-L1-Ig (100 and 10 nM, respectively) and CD80-His/CTLA4-Ig (10 and 5 nM, respectively). Binding/competition studies between biotinylated Compound No. 71 and human PD-L1-His were performed as follows. Macrocyclic peptide inhibitors were pre-incubated with PD-L1-His (10 nM final) for 60 minutes in 4 μl of assay buffer followed by addition of biotinylated Compound No. 71 (0.5 nM final) in 1 μl of assay buffer. Binding was allowed to equilibrate for 30 minutes followed by addition of europium crypated labeled Streptavidin (2.5 pM final) and APC-labeled anti-His (20 nM final) in 5 μl of HTRF buffer. The reaction was allowed to equilibrate for 30m and signal (665 nm/620 nm ratio) was obtained using an EnVision fluorometer.
Recombinant Proteins. Carboxyl-truncated human PD-1 (amino acids 25-167) with a C-terminal human Ig epitope tag [hPD-1 (25-167)-3S-IG] and human PD-L1 (amino acids 18-239) with a C-terminal His epitope tag [hPD-L1(19-239)-tobacco vein mottling virus protease cleavage site (TVMV)-His] were expressed in HEK293T cells and purified sequentially by recombinant Protein A affinity chromatography and size exclusion chromatography. Human PD-L2-His (Sino Biologicals), CD80-His (Sino Biologicals), CTLA4-Ig (RnD Systems) were all obtained through commercial sources.
In the case of `CCCC[C@H]1C(=O)N(C)[C@@H](CCCC)C(=O)N[C@@H](CCCNC(=N)N)C(=O)N[C@H](C(=O)NCC(=O)N[C@@H](Cc2cn(CCCCCNC(=O)CCC(=O)Oc3c(C)c(C)c4c(c3C)CC[C@@](C)(CCC[C@H](C)CCC[C@H](C)CCCC(C)C)O4)nn2)C(N)=O)CSCC(=O)N[C@@H](Cc2ccc(O)cc2)C(=O)N(C)[C@@H](C)C(=O)N[C@@H](CC(N)=O)C(=O)N2CCC[C@H]2C(=O)N[C@@H](CN)C(=O)N[C@@H](CC(C)C)C(=O)N2C[C@H](O)C[C@H]2C(=O)N[C@@H](Cc2c[nH]c3ccccc23)C(=O)N[C@@H](CO)C(=O)N[C@@H](Cc2csc3ccccc23)C(=O)N1C` [Example 14058], the IC50 is reported as 100 to 1600 nM.

Same assay, conditions: inhibition of PD-1-Ig binding to PD-L1-TVMV-His; value given as range class; read-out: HTRF IC50
`CCCC[C@H]1C(=O)N(C)[C@@H](CCCC)C(=O)N[C@@H](CC(C)C)C(=O)N[C@H](C(=O)NCC(=O)NCCCCCCCCCCC(=O)O)CSCC(=O)N[C@@H](Cc2ccc(O)cc2)C(=O)N(C)[C@@H](C)C(=O)N[C@@H](CC(N)=O)C(=O)N2CCC[C@H]2C(=O)N[C@@H](CO)C(=O)N[C@@H](CCC(N)=O)C(=O)N2C[C@H](O)C[C@H]2C(=O)N[C@@H](Cc2c[nH]c3ccccc23)C(=O)N[C@@H](CO)C(=O)N[C@@H](Cc2cn(CC(=O)O)c3ccccc23)C(=O)N1C` [Example 11084] ({CH2CO}-Y[NMeA]NPSQ[Hyp]WS[Trp(1-CH2COOH)][NMeNle][NMeNle]LCG[Aun]-OH; thioether N-14) showed an IC50 of 10 to 99 nM.
Work on `CCCC[C@H]1C(=O)N(C)CC(=O)N[C@@H](CC(=O)O)C(=O)N[C@@H](C(C)C)C(=O)N(C)[C@@H](Cc2ccccc2)C(=O)N[C@@H](Cc2ccc(O)cc2)C(=O)N(C)[C@@H](CCC(=O)O)C(=O)N[C@@H](Cc2c[nH]c3ccccc23)C(=O)N[C@@H](Cc2ccc(O)cc2)C(=O)N[C@@H](CC(C)C)C(=O)N[C@H](C(=O)NCC(=O)NCC(=O)NCC(=O)N[C@@H](CCCCNC(=O)CCOCCOCCOCCOCCOCCOCCOCCOCCOCCOCCOCCOC)C(N)=O)CSCC(=O)N[C@@H](Cc2ccccc2)C(=O)N(C)[C@@H](Cc2ccccc2)C(=O)N1C` [Example 3621] ({CH2CO}-F[NMeF][NMeNle][Sar]DV[NMeF]Y[NMeE]WYLCGGGK(CH3O(CH2CH2O)11CH2CH2CO)-NH2; thioether N-13) yielded an IC50 of 10 to 99 nM.
In the case of `CCCCCCCCCCCCCCNC(=O)CNC(=O)CNC(=O)[C@@H]1CSCC(=O)N[C@@H](Cc2ccc(O)cc2)C(=O)N(C)[C@@H](C)C(=O)N[C@@H](CC(N)=O)C(=O)N2CCC[C@H]2C(=O)N[C@@H](CCN)C(=O)N[C@@H](CC(C)C)C(=O)N2C[C@H](O)C[C@H]2C(=O)N[C@@H](Cc2c[nH]c3ccccc23)C(=O)N[C@@H](C(C)(C)C)C(=O)N[C@@H](Cc2c[nH]c3ccccc23)C(=O)N(C)[C@@H](CCCC)C(=O)N(C)[C@@H](CCCC)C(=O)N[C@@H](CCCNC(=N)N)C(=O)N1` [Example 11107] ({CH2CO}-Y[NMeA]NP[Dab]L[Hyp]W[Tle]W[NMeNle][NMeNle]RCGG-NHtetradecyl; thioether N-14), the IC50 is reported as 100 to 1600 nM.
`CCCC[C@H]1C(=O)N2C[C@H](O)C[C@@H]2C(=O)N[C@@H](CC(=O)O)C(=O)N[C@@H](C(C)C)C(=O)N(C)[C@@H](Cc2ccccc2)C(=O)N[C@@H](Cc2ccc(O)cc2)C(=O)N2CCCC[C@@H]2C(=O)N[C@@H](Cc2c[nH]c3ccccc23)C(=O)N[C@@H](Cc2ccc(O)cc2)C(=O)N[C@@H](CC(C)C)C(=O)N[C@H](C(=O)NCC(=O)NCC(=O)NCC(=O)N[C@@H](CCCCN)C(N)=O)CSCC(=O)N[C@@H](Cc2cc(F)c(F)c(F)c2)C(=O)N(C)[C@@H](Cc2ccccc2)C(=O)N1C` [Example 3623] ({CH2CO}-[Phe(3,4,5-F3)][NMeF][NMeNle][d(cisHyp)]DV[NMeF]Y[dPip]WYLCGGGK-NH2; thioether N-13) was tested, and the IC50 was 0.3 to 9.9 nM.
Compound `CCCC[C@H]1C(=O)N(C)[C@@H](CCCC)C(=O)N[C@@H](CC(C)C)C(=O)N[C@H](C(=O)NCC(=O)NCC(=O)NCC(=O)NCCCCCCCCCCC(=O)O)CSCC(=O)N[C@@H](Cc2ccc(O)cc2)C(=O)N(C)[C@@H](C)C(=O)N[C@@H](CC(N)=O)C(=O)N2CCC[C@H]2C(=O)N[C@@H](Cc2cnc[nH]2)C(=O)N[C@@H](CCC(=O)O)C(=O)N2C[C@H](O)C[C@H]2C(=O)N[C@@H](Cc2c[nH]c3ccccc23)C(=O)N[C@@H](CCN)C(=O)N[C@@H](Cc2cn(CC(=O)O)c3ccccc23)C(=O)N1C` [Example 11079] ({CH2CO}-Y[NMeA]NPHE[Hyp]W[Dab][Trp(1-CH2COOH)][NMeNle][NMeNle]LCGGG[Aun]-OH; thioether N-14) has an IC50 of 10 to 99 nM.
Compound `C#CC[C@H](NC(=O)CNC(=O)[C@@H]1CSCC(=O)N[C@@H](Cc2ccc(O)cc2)C(=O)N(C)[C@@H](C)C(=O)N[C@@H](CC(=O)O)C(=O)N2CCC[C@H]2C(=O)N[C@@H](Cc2c[nH]cn2)C(=O)N[C@@H](CCCCN)C(=O)N2C[C@H](O)C[C@H]2C(=O)N[C@@H](Cc2c[nH]c3ccccc23)C(=O)N[C@@H](CCCCN)C(=O)N[C@@H](Cc2c[nH]c3ccccc23)C(=O)N(C)[C@@H](CCCC)C(=O)N(C)[C@@H](CCCC)C(=O)N[C@@H](CCC(=O)O)C(=O)N1)C(N)=O` [INT 1400F, ClAc-Tyr-mAla-Asp-Pro-His-Lys-Hyp-Trp-Lys-Trp-mNle-mNle-Glu-Cys-Gly-[(S)-propargylglycine]] ({CH2CO}-Y[NMeA]DPHK[Hyp]WKW[NMeNle][NMeNle]ECG[Pra]-NH2; thioether N-14) has an IC50 of 0.3 to 9.9 nM.
With `CCCC[C@H]1C(=O)N(C)[C@@H](CCCC)C(=O)N[C@@H](CC(C)C)C(=O)N[C@H](C(=O)NCCCCCCCCCCC(=O)O)CSCC(=O)N[C@@H](Cc2ccc(O)cc2)C(=O)N(C)[C@@H](C)C(=O)N[C@@H](CC(N)=O)C(=O)N2CCC[C@H]2C(=O)N[C@@H](CO)C(=O)N[C@@H](CCC(N)=O)C(=O)N2C[C@H](O)C[C@H]2C(=O)N[C@@H](Cc2c[nH]c3ccccc23)C(=O)N[C@@H](CO)C(=O)N[C@@H](Cc2cn(CC(=O)O)c3ccccc23)C(=O)N1C` [Example 11082] ({CH2CO}-Y[NMeA]NPSQ[Hyp]WS[Trp(1-CH2COOH)][NMeNle][NMeNle]LC[Aun]-OH; thioether N-14) the IC50 was 10 to 99 nM.
In the case of `CCCC[C@H]1C(=O)N(C)[C@@H](CCCC)C(=O)N[C@@H](CCCNC(=N)N)C(=O)N[C@H](C(=O)NCC(=O)N[C@@H](Cc2cn(CC[C@H](NC(=O)CCCCCCCCCCCCCCC(=O)O)C(=O)O)nn2)C(N)=O)CSCC(=O)N[C@@H](Cc2ccc(O)cc2)C(=O)N(C)[C@@H](C)C(=O)N[C@@H](CC(N)=O)C(=O)N2CCC[C@H]2C(=O)N[C@@H](CN)C(=O)N[C@@H](CC(C)C)C(=O)N2C[C@H](O)C[C@H]2C(=O)N[C@@H](Cc2c[nH]c3ccccc23)C(=O)N[C@@H](CO)C(=O)N[C@@H](Cc2c[nH]c3ccccc23)C(=O)N1C` [Example 14066], the IC50 is reported as 0.3 to 9.9 nM.
In the case of `CCCC[C@H]1C(=O)N(C)[C@@H](CCCC)C(=O)N[C@@H](CC(C)C)C(=O)N[C@H](C(=O)NCC(=O)N[C@H](CC(=O)O)C(=O)NCC(=O)NCCCCCCCCCCC(=O)O)CSCC(=O)N[C@@H](Cc2ccc(O)cc2)C(=O)N(C)[C@@H](C)C(=O)N[C@@H](CC(N)=O)C(=O)N2CCC[C@H]2C(=O)N[C@@H](CN)C(=O)N[C@@H](CC(C)C)C(=O)N2C[C@H](O)C[C@H]2C(=O)N[C@@H](Cc2c[nH]c3ccccc23)C(=O)N[C@@H](CCN)C(=O)N[C@@H](Cc2cn(CC(=O)O)c3ccccc23)C(=O)N1C` [Example 11100] ({CH2CO}-Y[NMeA]NP[Dap]L[Hyp]W[Dab][Trp(1-CH2COOH)][NMeNle][NMeNle]LCG[dD]G[Aun]-OH; thioether N-14), the IC50 is reported as 10 to 99 nM.
Work on `CCCC[C@H]1C(=O)N(C)[C@@H](CCCC)C(=O)N[C@@H](CC(C)C)C(=O)N[C@H](C(=O)NCCOCCOCCOCCOCCOCCOCCC(=O)NC[C@H](NC(=O)CCCCCCCCCCCCCCCCC(=O)O)C(=O)O)CSCC(=O)N[C@@H](Cc2ccc(O)cc2)C(=O)N(C)[C@@H](C)C(=O)N[C@@H](CC(N)=O)C(=O)N2CCC[C@H]2C(=O)N[C@@H](CN)C(=O)N[C@@H](CC(C)C)C(=O)N2C[C@H](O)C[C@H]2C(=O)N[C@@H](Cc2c[nH]c3ccccc23)C(=O)N[C@@H](CCN)C(=O)N[C@@H](Cc2cn(CC(=O)O)c3ccccc23)C(=O)N1C` [Example 11180] ({CH2CO}-Y[NMeA]NP[Dap]L[Hyp]W[Dab][Trp(1-CH2COOH)][NMeNle][NMeNle]LC[PEG6]-{Dap(Nα-HOOC(CH2)16CO)OH}; thioether N-14) yielded an IC50 of 10 to 99 nM.
